What was measured:
MDA-MB-231 = test: Antiproliferative activity against human MDA-MB-231 cells reduction in cell viability measured after 48 hrs by MTT assay; assay type: functional, cell-based
MCF7 = test: Antiproliferative activity against human MCF7 cells reduction in cell viability measured after 48 hrs by MTT assay; assay type: functional, cell-based
HEK-293T = test: Cytotoxicity against human 293T cells assessed as reduction in cell viability measured after 48 hrs by MTT assay; assay type: cell-based
[1] = target: GTPase KRas (Homo sapiens) (UniProt P01116); test: Inhibition of KRAS in human MDA-MB-231 cells assessed as reduction in Pan RAS protein level at 15 uM measured after 24 hrs by Western blot analysis relative to control; assay type: cell-based
[2] = target: GTPase KRas (Homo sapiens) (UniProt P01116); test: Inhibition of KRAS in human MDA-MB-231 cells assessed as reduction in phosphorylated RAF-1 E1 protein level at 15 uM measured after 24 hrs by Western blot analysis relative to control; assay type: cell-based
[3] = target: GTPase KRas (Homo sapiens) (UniProt P01116); test: Inhibition of KRAS in human MDA-MB-231 cells assessed as reduction in MEK1/2 9G3 protein level at 15 uM measured after 24 hrs by Western blot analysis relative to control; assay type: cell-based
[4] = target: GTPase KRas (Homo sapiens) (UniProt P01116); test: Inhibition of KRAS in human MDA-MB-231 cells assessed as reduction in phosphorylated MEK1/2 at Ser217/221 residues protein level at 15 uM measured after 24 hrs by Western blot analysis relative to control; assay type: cell-based
[5] = target: GTPase KRas (Homo sapiens) (UniProt P01116); test: Inhibition of KRAS in human MDA-MB-231 cells assessed as reduction in ERK1/2 137F5 protein level at 15 uM measured after 24 hrs by Western blot analysis relative to control; assay type: cell-based
[6] = target: GTPase KRas (Homo sapiens) (UniProt P01116); test: Inhibition of KRAS in human MDA-MB-231 cells assessed as reduction in phosphorylated ERK1/2 at Thr185/Tyr187 residues protein level at 15 uM measured after 24 hrs by Western blot analysis relative to control; assay type: cell-based
[7] = target: GTPase KRas (Homo sapiens) (UniProt P01116); test: Inhibition of KRAS in human MDA-MB-231 cells assessed as reduction in Pan RAS protein level at 25 uM measured after 24 hrs by Western blot analysis relative to control; assay type: cell-based
[8] = target: GTPase KRas (Homo sapiens) (UniProt P01116); test: Inhibition of KRAS in human MDA-MB-231 cells assessed as reduction in phosphorylated RAF-1 E1 protein level at 25 uM measured after 24 hrs by Western blot analysis relative to control; assay type: cell-based
[9] = target: GTPase KRas (Homo sapiens) (UniProt P01116); test: Inhibition of KRAS in human MDA-MB-231 cells assessed as reduction in MEK1/2 9G3 protein level at 25 uM measured after 24 hrs by Western blot analysis relative to control; assay type: cell-based
[10] = target: GTPase KRas (Homo sapiens) (UniProt P01116); test: Inhibition of KRAS in human MDA-MB-231 cells assessed as reduction in phosphorylated MEK1/2 at Ser217/221 residues protein level at 25 uM measured after 24 hrs by Western blot analysis relative to control; assay type: cell-based
[11] = target: GTPase KRas (Homo sapiens) (UniProt P01116); test: Inhibition of KRAS in human MDA-MB-231 cells assessed as reduction in ERK1/2 137F5 protein level at 25 uM measured after 24 hrs by Western blot analysis relative to control; assay type: cell-based
[12] = target: GTPase KRas (Homo sapiens) (UniProt P01116); test: Inhibition of KRAS in human MDA-MB-231 cells assessed as reduction in phosphorylated ERK1/2 at Thr185/Tyr187 residues protein level at 25 uM measured after 24 hrs by Western blot analysis relative to control; assay type: cell-based
[13] = target: GTPase KRas (Homo sapiens) (UniProt P01116); test: Inhibition of KRAS in human MDA-MB-231 cells assessed as reduction in Pan RAS protein level at 35 uM measured after 24 hrs by Western blot analysis relative to control; assay type: cell-based
[14] = target: GTPase KRas (Homo sapiens) (UniProt P01116); test: Inhibition of KRAS in human MDA-MB-231 cells assessed as reduction in phosphorylated RAF-1 E1 protein level at 35 uM measured after 24 hrs by Western blot analysis relative to control; assay type: cell-based
[15] = target: GTPase KRas (Homo sapiens) (UniProt P01116); test: Inhibition of KRAS in human MDA-MB-231 cells assessed as reduction in MEK1/2 9G3 protein level at 35 uM measured after 24 hrs by Western blot analysis relative to control; assay type: cell-based
[16] = target: GTPase KRas (Homo sapiens) (UniProt P01116); test: Inhibition of KRAS in human MDA-MB-231 cells assessed as reduction in phosphorylated MEK1/2 at Ser217/221 residues protein level at 35 uM measured after 24 hrs by Western blot analysis relative to control; assay type: cell-based
[17] = target: GTPase KRas (Homo sapiens) (UniProt P01116); test: Inhibition of KRAS in human MDA-MB-231 cells assessed as reduction in ERK1/2 137F5 protein level at 35 uM measured after 24 hrs by Western blot analysis relative to control; assay type: cell-based
[18] = target: GTPase KRas (Homo sapiens) (UniProt P01116); test: Inhibition of KRAS in human MDA-MB-231 cells assessed as reduction in phosphorylated ERK1/2 at Thr185/Tyr187 residues protein level at 35 uM measured after 24 hrs by Western blot analysis relative to control; assay type: cell-based
[19] = target: GTPase KRas (Homo sapiens) (UniProt P01116); test: Inhibition of KRAS in human MCF7 cells assessed as reduction in Pan RAS protein level at 15 uM measured after 24 hrs by Western blot analysis relative to control; assay type: cell-based
[20] = target: GTPase KRas (Homo sapiens) (UniProt P01116); test: Inhibition of KRAS in human MCF7 cells assessed as reduction in phosphorylated RAF-1 E1 protein level at 15 uM measured after 24 hrs by Western blot analysis relative to control; assay type: cell-based
[21] = target: GTPase KRas (Homo sapiens) (UniProt P01116); test: Inhibition of KRAS in human MCF7 cells assessed as reduction in MEK1/2 9G3 protein level at 15 uM measured after 24 hrs by Western blot analysis relative to control; assay type: cell-based
[22] = target: GTPase KRas (Homo sapiens) (UniProt P01116); test: Inhibition of KRAS in human MCF7 cells assessed as reduction in phosphorylated MEK1/2 at Ser217/221 residues protein level at 15 uM measured after 24 hrs by Western blot analysis relative to control; assay type: cell-based
[23] = target: GTPase KRas (Homo sapiens) (UniProt P01116); test: Inhibition of KRAS in human MCF7 cells assessed as reduction in ERK1/2 137F5 protein level at 15 uM measured after 24 hrs by Western blot analysis relative to control; assay type: cell-based
[24] = target: GTPase KRas (Homo sapiens) (UniProt P01116); test: Inhibition of KRAS in human MCF7 cells assessed as reduction in phosphorylated ERK1/2 at Thr185/Tyr187 residues protein level at 15 uM measured after 24 hrs by Western blot analysis relative to control; assay type: cell-based
[25] = target: GTPase KRas (Homo sapiens) (UniProt P01116); test: Inhibition of KRAS in human MCF7 cells assessed as reduction in Pan RAS protein level at 25 uM measured after 24 hrs by Western blot analysis relative to control; assay type: cell-based
[26] = target: GTPase KRas (Homo sapiens) (UniProt P01116); test: Inhibition of KRAS in human MCF7 cells assessed as reduction in phosphorylated RAF-1 E1 protein level at 25 uM measured after 24 hrs by Western blot analysis relative to control; assay type: cell-based
[27] = target: GTPase KRas (Homo sapiens) (UniProt P01116); test: Inhibition of KRAS in human MCF7 cells assessed as reduction in MEK1/2 9G3 protein level at 25 uM measured after 24 hrs by Western blot analysis relative to control; assay type: cell-based
[28] = target: GTPase KRas (Homo sapiens) (UniProt P01116); test: Inhibition of KRAS in human MCF7 cells assessed as reduction in phosphorylated MEK1/2 at Ser217/221 residues protein level at 25 uM measured after 24 hrs by Western blot analysis relative to control; assay type: cell-based

In the case of `O=P(Oc1ccccc1)(Oc1ccccc1)OC1C2OC3(c4ccccc4)OC(C2O)C(O)C1O3` (stereo not drawn), the Activity (MDA-MB-231) is reported as “Dose-dependent effect”, the IC50 (MDA-MB-231; MDA-MB-231, 48 h) is reported as 22.4 µM and the Activity (MCF7) is reported as “Dose-dependent effect”. It also gave an IC50 (MCF7; MCF7, 48 h) of 35.1 µM, an IC50 (HEK-293T) of 39.5 µM and a fold change (FC) [1] of 1.16. It also gave a fold change (FC) [2] of 0.85, a fold change (FC) [3] of 0.91 and a fold change (FC) [4] of 1.24. The fold change (FC) [5] was 0.99, the fold change (FC) [6] was 1.15 and the fold change (FC) [7] was 1.18. For the same compound, the fold change (FC) [8] was 0.14, the fold change (FC) [9] was 0.61 and the fold change (FC) [10] was 0.97. The fold change (FC) [11] was 0.91, the fold change (FC) [12] was 1 and the fold change (FC) [13] was 0.46. For the same compound, the fold change (FC) [14] was 0.17, the fold change (FC) [15] was 0.46 and the fold change (FC) [16] was 0.53. For the same compound, the fold change (FC) [17] was 0.93, the fold change (FC) [18] was 0.42 and the fold change (FC) [19] was 0.99. It also gave a fold change (FC) [20] of 1.06, a fold change (FC) [21] of 0.97 and a fold change (FC) [22] of 0.91. It also gave a fold change (FC) [23] of 1.25, a fold change (FC) [24] of 1.02 and a fold change (FC) [25] of 1.16. The fold change (FC) [26] was 0.99, the fold change (FC) [27] was 1.06 and the fold change (FC) [28] was 1.12.

From ChEMBL document CHEMBL4622932, “Design, synthesis and biological evaluation of new Myo-inositol derivatives as potential RAS inhibitors” (Bioorg Med Chem Lett, 2020)
